Laboratory results: the supplement of paper PMC13380429
± gives the standard deviation of the averaged measurements.

What was measured:
Settings in all cases: 72 h
U2OS [1] = assay: drug sensitivity score (DSS) for viability; higher = more toxic; extreme values may be limits of the assay
HepG2 [2] = assay: as above
Vero E6 [3] = assay: as above
Caco-2 [4] = assay: as above
U2OS [5] = assay: relative viability EC50 (midpoint between 100% and the lowest measured viability); higher = less toxic
HepG2 [6] = assay: as above
Vero E6 [7] = assay: as above
Caco-2 [8] = assay: as above
U2OS [9] = assay: cell viability relative to DMSO; higher = less toxic
HepG2 [10] = assay: as above
Vero E6 [11] = assay: as above
Caco-2 [12] = assay: as above
Calu-3 [13] = assay: drug sensitivity score (DSS) for viability; higher = more toxic; extreme values may be limits of the assay
Calu-3 [14] = assay: relative viability EC50 (midpoint between 100% and the lowest measured viability); higher = less toxic
Calu-3 [15] = assay: cell viability relative to DMSO; higher = less toxic

| SMILES | drug sensitivity score (U2OS [1]) | drug sensitivity score (HepG2 [2]) | drug sensitivity score (Vero E6 [3]) | drug sensitivity score (Caco-2 [4]) | relative viability EC50 (U2OS [5]) [µM] | relative viability EC50 (HepG2 [6]) [µM] | relative viability EC50 (Vero E6 [7]) [µM] | relative viability EC50 (Caco-2 [8]) [µM] | cell viability (U2OS [9]; 1 nM) [%] | cell viability (U2OS [9]; 10 nM) [%] | cell viability (U2OS [9]; 100 nM) [%] | cell viability (U2OS [9]; 1000 nM) [%] | cell viability (U2OS [9]; 10000 nM) [%] | cell viability (HepG2 [10]; 1 nM) [%] | cell viability (HepG2 [10]; 10 nM) [%] | cell viability (HepG2 [10]; 100 nM) [%] | cell viability (HepG2 [10]; 1000 nM) [%] | cell viability (HepG2 [10]; 10000 nM) [%] | cell viability (Vero E6 [11]; 1 nM) [%] | cell viability (Vero E6 [11]; 10 nM) [%] | cell viability (Vero E6 [11]; 100 nM) [%] | cell viability (Vero E6 [11]; 1000 nM) [%] | cell viability (Vero E6 [11]; 10000 nM) [%] | cell viability (Caco-2 [12]; 1 nM) [%] | cell viability (Caco-2 [12]; 10 nM) [%] | cell viability (Caco-2 [12]; 100 nM) [%] | cell viability (Caco-2 [12]; 1000 nM) [%] | cell viability (Caco-2 [12]; 10000 nM) [%] | drug sensitivity score (Calu-3 [13]) | relative viability EC50 (Calu-3 [14]) [µM] | cell viability (Calu-3 [15]; 1 nM) [%] | cell viability (Calu-3 [15]; 10 nM) [%] | cell viability (Calu-3 [15]; 100 nM) [%] | cell viability (Calu-3 [15]; 1000 nM) [%] | cell viability (Calu-3 [15]; 10000 nM) [%] |
| --- | --- | --- | --- | --- | --- | --- | --- | --- | --- | --- | --- | --- | --- | --- | --- | --- | --- | --- | --- | --- | --- | --- | --- | --- | --- | --- | --- | --- | --- | --- | --- | --- | --- | --- | --- |
| N#Cc1cccc(-c2nc(-c3cccnc3)no2)c1 [NS-9283] | 0 | 0 | 0 | 0 | > 10 | > 10 | > 10 | > 10 | 100 | 101 | 97.1 | 98.6 | 99.7 | 105 | 97.2 | 104 | 101 | 98.8 | 99.1 | 98.7 | 101 | 102 | 99.7 | 91.1 | 94.4 | 90.9 | 95 | 93.1 |  |  |  |  |  |  |  |
| O=C1C(O)=C([C@H]2CC[C@H](c3ccc(Cl)cc3)CC2)C(=O)c2ccccc21 [atovaquone] | 0 | 0 | 1.7 | 0 | > 10 | > 10 |  | > 10 | 96.8 | 98.3 | 96.5 | 96.4 | 92.8 | 99.4 | 90.2 | 94.8 | 98.9 | 107 | 95.2 | 101 | 101 | 99.2 | 66.3 | 94.6 | 103 | 104 | 102 | 95.9 | 0 | > 10 | 102 | 107 | 92.2 | 102 | 108 |
| CN1CCc2cc3c(cc2[C@H]1[C@@H]1OC(=O)c2c1ccc1c2OCO1)OCO3 [bicuculline-(+)] | 0 | 0 | 0 | 0 | > 10 | > 10 | > 10 | > 10 | 97.4 | 96.1 | 97.6 | 99.5 | 99.8 | 91.1 | 98.3 | 88.8 | 97.8 | 106 | 95.2 | 98.6 | 94.7 | 102 | 104 | 93.2 | 86.7 | 96.4 | 96.5 | 100 |  |  |  |  |  |  |  |
| CCOC(=O)NNc1ccc(N(CC)CC(C)O)nn1 (stereo not given) [cadralazine] |  | 0 | 0 | 0 |  | > 10 | > 10 | > 10 |  |  |  |  |  | 95.6 | 103 | 97.9 | 96.6 | 106 | 105 | 100 | 94.8 | 100 | 95.2 | 110 | 97.4 | 100 | 102 | 102 | 0 | > 10 | 104 | 96.3 | 91.6 | 88.1 | 101 |
| C[C@H](CCC(=O)O)[C@H]1CC[C@H]2[C@@H]3C(=O)C[C@@H]4CC(=O)CC[C@]4(C)[C@H]3CC(=O)[C@]12C [dehydrocholate-acid] | 0 | 0 | 0 | 0 | > 10 | > 10 | > 10 | > 10 | 101 ± 2.8 | 96.9 ± 2.8 | 98.3 ± 1.3 | 96 ± 2.3 | 97.6 ± 0.14 | 95.8 ± 7.3 | 102 ± 5.5 | 95.05 ± 0.21 | 103 ± 1.1 | 102 ± 7.3 | 97.8 ± 0.57 | 102 ± 5.9 | 91.2 ± 6.6 | 94 ± 8 | 103 ± 7.6 | 95.5 ± 1.1 | 84 ± 19 | 96.2 ± 5.6 | 94.2 ± 6.7 | 93.2 ± 16 |  |  |  |  |  |  |  |
| COC1=C2C[C@@H](C)C[C@H](OC)[C@H](O)[C@@H](C)/C=C(\C)[C@H](OC(N)=O)[C@@H](OC)/C=C\C=C(/C)C(=O)NC(=CC1=O)C2=O [geldanamycin] | 15 | 17.3 | 1.8 | 9.2 | 0.474 | 0.35 |  | 0.716 | 100 | 101 | 93.6 | 24.2 | 3 | 101 | 105 | 106 | 1.2 | 1 | 97.1 | 102 | 98 | 98.1 | 65.9 | 106 | 95.9 | 95.1 | 56.9 | 29.2 | 7.6 | 1.01 | 99 | 107 | 103 | 68 | 35.4 |
| O=C1Nc2ccccc2/C1=C1/Nc2ccccc2C1=O [indirubin] |  | 0 | 0 | 0 |  | > 10 | > 10 | > 10 |  |  |  |  |  | 110 | 110 | 97.8 | 94 | 93.6 | 101 | 96.4 | 97.5 | 97.7 | 98.1 | 101 | 100 | 109 | 94.8 | 105 | 0 | > 10 | 116 | 104 | 109 | 93.1 | 119 |
| C=C1c2cccc(O)c2C(=O)C2=C(O)[C@]3(O)C(=O)C(C(N)=O)=C(O)[C@@H](N(C)C)[C@@H]3[C@@H](O)[C@H]12 [methacycline] | 0 | 0 | 5.8 | 0 | > 10 | > 10 |  | > 10 | 101 | 96.9 | 104 | 99.9 | 103 | 104 | 99.9 | 97.9 | 96.9 | 89.9 | 70.6 | 105 | 71.4 | 97.6 | 63.2 | 98.1 | 95.7 | 99.7 | 93.5 | 95.4 | 0.3 | > 10 | 99.3 | 89.1 | 100 | 83 | 90.7 |
| COC(=O)Nc1nc2cc(C(=O)c3cccs3)ccc2[nH]1 [nocodazole] | 13.6 | 13.3 | 17.9 | 11.8 | 0.252 | 0.159 | 0.103 | 0.174 | 105 | 110 | 70.4 | 46 | 24.3 | 114 | 103 | 85.6 | 40 | 40.2 | 105 | 108 | 64.8 | 30.7 | 26.8 | 102 | 105 | 73.6 | 54.1 | 40.6 | 10.6 |  | 103 | 105 | 73.8 | 65.4 | 54.9 |
| CCN1CCN(C(=O)N[C@@H](C(=O)N[C@@H]2C(=O)N3[C@@H]2SC(C)(C)[C@@H]3C(=O)O)c2ccccc2)C(=O)C1=O [piperacillin] | 0 | 0 | 0 | 0 | > 10 | > 10 | > 10 | > 10 | 97 | 94 | 93.9 | 102 | 103 | 114 | 113 | 104 | 103 | 95.5 | 97.2 | 99.1 | 97.7 | 96.5 | 110 | 93.8 | 91.1 | 97.8 | 103 | 106 |  |  |  |  |  |  |  |
| CCn1cc(C(=O)O)c(=O)c2ccc(-c3ccncc3)cc21 [rosoxacin] | 0 | 0 | 0 | 0 | > 10 | > 10 | > 10 | > 10 | 101 | 96.6 | 99.2 | 97.8 | 99.9 | 94.7 | 97.8 | 97.5 | 94.6 | 111 | 99.8 | 102 | 89.1 | 103 | 103 | 102 | 98 | 96.3 | 98.6 | 95.7 |  |  |  |  |  |  |  |
| O=C(O)c1cc(O)c2c(c1)[C@H]([C@H]1c3cc(C(=O)O)cc(O)c3C(=O)c3c(O[C@@H]4O[C@H](CO)[C@@H](O)[C@H](O)[C@H]4O)cccc31)c1cccc(O[C@@H]3O[C@H](CO)[C@@H](O)[C@H](O)[C@H]3O)c1C2=O [sennoside-A] | 0 | 0 | 0 | 0 | > 10 | > 10 | > 10 | > 10 | 94 | 100 | 96.5 | 96.6 | 88.3 | 90.2 | 91.7 | 89.6 | 103 | 92.4 | 112 | 93.1 | 95.9 | 98.8 | 101 | 79.8 | 100 | 88 | 82.1 | 123 | 2.3 |  | 95.3 | 96.8 | 90.1 | 91 | 67.3 |
| S=C(NC1CCCCC1)N1CCC(c2cnc[nH]2)CC1 [thioperamide] | 0 | 0 | 0 | 0 | > 10 | > 10 | > 10 | > 10 | 100 | 96.2 | 98.7 | 93.1 | 96.4 | 108 | 97.3 | 104 | 100 | 92.7 | 103 | 103 | 96.5 | 94.3 | 95.9 | 98.7 | 99.4 | 92.7 | 103 | 95.4 |  |  |  |  |  |  |  |
| CC(C)C[C@@H](C(=O)N[C@H](C(=O)OC1CCCC1)c1ccccc1)[C@H](O)C(=O)NO [tosedostat] | 1.5 | 4.6 | 0 | 1.1 |  |  | > 10 | > 10 | 97.7 | 103 | 96.3 | 98.3 | 70.9 | 105 | 87.8 | 88.5 | 80.1 | 66.7 | 99.7 | 99.1 | 104 | 102 | 106 | 90 | 105 | 93.6 | 88.6 | 84.1 | 8.9 |  | 96.2 | 101 | 74.6 | 69.7 | 59.8 |
| Nc1nc(N)c2nc(-c3ccccc3)c(N)nc2n1 [triamterene] | 0 | 5.2 | 1.5 | 0 | > 10 | > 10 |  | > 10 | 102 | 101 | 106 | 108 | 97.8 | 97.9 | 83.3 | 85.9 | 88.7 | 88.1 | 97.9 | 98.2 | 101 | 98.6 | 70.4 | 104 | 120 | 97.8 | 106 | 98.8 | 0 | > 10 | 103 | 101 | 93.6 | 97.9 | 102 |
